Measurements published in patent publication US8633226B2, “Piperidinyl derivative as a modulator of chemokine receptor activity” (Bristol-Myers Squibb Company, priority 2008, dated 2014).
pEC50: −log10 of the molar value.

Experiments:
Human PXR = Human PXR (Homo sapiens (Human), UniProt O75469); experiment: PXR transactivation assay; format: cell-based
Excerpt: The cell culture medium used is DMEM. […] Charcoal/dextran treated fetal bovine serum (FBS) was purchased from Hyclone (Logan, Utah). HepG2 cells were obtained from ATCC (Manassas, Va.). Human PXR-pcDNA3 and luciferase reporter containing CYP3A4 promoter, CYP3A-Luc, were generated at Bristol-Myers Squibb. White tissue culture (TC)-surface 384-well plates were purchased from Perkin Elmer (Boston, Mass.). Luciferase substrate (Steady-Glo) was purchased from Promega (Madison, Wis.). Control compounds rifampicin, mifepristone, and sulfinpyrazone were purchased from Sigma (St. Louis, Mo.).
Culture of HepG2 cells is performed in T175 flasks using DMEM containing 10% FBS. The transfection mixture contains 1 μg/mL of PXR-pcDNA3 plasmid DNA, 20 μg/ml of Cyp3A-Lue plasmid DNA, 90 μL/mL of Lipofectamine 2000, and serum-free medium. After incubating at room temperature for 20 minutes, the transfection mixture (1 ml per flask) is applied to the cells in fresh medium (20 mL per flask), and flasks incubated at 37° C. (5% CO2) overnight.
The flasks are then tapped vigorously to break up cell aggregates. After the addition of 8 mL of DMEM containing 5% charcoal/dextran-treated FBS, the entire mixture is transferred to conical tubes. Cells are then centrifuged at 1000 rpm for 5 minutes. Cell pellets are resuspended to a final count of ˜7×10^6 cells/ml, in freezing media (DMEM containing 20% serum and 10% DMSO). The cell suspension is aliquoted into 15-mL polypropylene tubes, 5 mL per tube. Cells are slowly frozen by placing in a Styrofoam-insulated container at −80° C. overnight. Vials are transferred to an Ultracold (−140° C.) freezer after 24 hours for long-term storage.
Vials of cryopreserved cells are thawed rapidly in a warm water bath for five minutes. Cells are pooled and diluted to 50 mL in a 50-mL conical vial. The thawed cells are centrifuged at 1500 rpm for 5 minutes to collect the cells and the supernatant discarded. Cells are then resuspended in fresh Media II (DMEM containing 5% charcoal/dextran-treated FBS, 1% Penicillin/Streptomycin, 100 μM Non-essential Amino Acids, 1 mM Sodium Pyruvate, and 2 mM L-Glutamine), counted using the Guava Cell Counter, and diluted to 1.6×10^5 cells/ml in the same media.
Fifty microliters of cell mixture is added to wells in columns 1-23 of white tissue-culture treated 384-well plates containing 0.25 μL of test compound dissolved in 100% DMSO. Fifty microliters of Media II is added to wells in column 24. The plates are incubated at 37° C. (5% CO2) for 24 hours, then 5 μL of Alamar Blue reagent (Trek Diagnostics, Cat #00-100) is added to each well. Plates are then incubated an additional two hours at 37° C., 5% CO2 and then one hour at room temperature. […] After the fluorescence is measured, 25 μL of luciferase substrate (Steady-Glo, Promega) is added to each well. The plates are incubated for fifteen minutes at room temperature, after which the luminescence is read on a PheraStar (BMG Labtech) plate reader.
Rifampicin (10 μM), a well-known agonist of PXR, is included in each plate as an internal standard and positive control. The data is then expressed as percent control (% CTRL), where the control signal is the signal from the 10 μM rifampicin and the blank signal is that from the DMSO vehicle. % CTRL=((Compound signal−Blank signal)/(Control signal−Blank signal))*100
The EC50 is defined as the concentration corresponding to half of the maximal response derived from the fitted 20-point curve as determined using a four-parameter logistic regression model. Additionally, compounds may also be reported as EC20 or EC60.

[1] = In vitro metabolism assay, human liver microsomes, Assay Conditions A; format: in vitro ADME; settings: 0.5 μM compound, 10 minutes, 37° C.
Procedure: Test compound is received as a 3.5 mM stock solution in 100 percent DMSO. Compound is diluted to create a 50 μM acetonitrile (ACN) solution containing 1.4% DMSO, which is then used as a 100× stock for incubation with microsomes. Each compound is tested in duplicate separately in each of three species in the Metabolic Stability-Human, Rat, and Mouse assay suite or as individual species in the Metabolic Stability-Dog or Metabolic Stability-Monkey suites. Compound, NADPH and liver microsome solutions are combined for incubation in three steps:
152 μL of liver microsome suspension, protein concentration of 1.1 mg/mL in 100 mM NaPi, pH 7.4, 6.6 mM MgCl2 buffer, is pre-warmed at 37° C.
• 1) 1.7 μL of 50 μM compound (98.6% ACN, 1.4% DMSO) is added to the same tube and pre-incubated at 37° C. for 5 minutes. • 2) The reaction is initiated by the addition of 17 μL of pre-warmed 10 mM NADPH solution in 100 mM NaPi, pH 7.4. • 3) Reaction components are mixed well, and 75 μL are immediately transferred into 150 μl quench/stop solution (zero-time point, T0). Reactions are incubated at 37° C. for 10 minutes and then an additional 75 μL aliquot is transferred into 150 μL quench solution. Acetonitrile containing 100 μM DMN (a UV standard for injection quality control), is used as the quench solution to terminate metabolic reactions. • 4) Quenched mixtures are centrifuged at 1500 rpm (˜500×g) in an Allegra X-12 centrifuge, SX4750 rotor (Beckman Coulter Inc., Fullerton, Calif.) for fifteen minutes to pellet denatured microsomes. A volume of 90 μL of supernatant extract, containing the mixture of parent compound and its metabolites, is then transferred to a separate 96-well plate for UV-LC/MS-MS analysis to determine the percent of parent compound that is remaining in the mixture. • 5)

[2] = target: human cardiac sodium channel SCN5A (Homo sapiens (Human), UniProt Q14524); experiment: Sodium channel whole-cell patch-clamp assay; format: cell-based; settings: HEK-293 cells expressing human cardiac sodium channel SCN5A, pH 7.4, protein-free buffer, read-out: Na, % inh
Sequence of human cardiac sodium channel SCN5A (Q14524 whole entry): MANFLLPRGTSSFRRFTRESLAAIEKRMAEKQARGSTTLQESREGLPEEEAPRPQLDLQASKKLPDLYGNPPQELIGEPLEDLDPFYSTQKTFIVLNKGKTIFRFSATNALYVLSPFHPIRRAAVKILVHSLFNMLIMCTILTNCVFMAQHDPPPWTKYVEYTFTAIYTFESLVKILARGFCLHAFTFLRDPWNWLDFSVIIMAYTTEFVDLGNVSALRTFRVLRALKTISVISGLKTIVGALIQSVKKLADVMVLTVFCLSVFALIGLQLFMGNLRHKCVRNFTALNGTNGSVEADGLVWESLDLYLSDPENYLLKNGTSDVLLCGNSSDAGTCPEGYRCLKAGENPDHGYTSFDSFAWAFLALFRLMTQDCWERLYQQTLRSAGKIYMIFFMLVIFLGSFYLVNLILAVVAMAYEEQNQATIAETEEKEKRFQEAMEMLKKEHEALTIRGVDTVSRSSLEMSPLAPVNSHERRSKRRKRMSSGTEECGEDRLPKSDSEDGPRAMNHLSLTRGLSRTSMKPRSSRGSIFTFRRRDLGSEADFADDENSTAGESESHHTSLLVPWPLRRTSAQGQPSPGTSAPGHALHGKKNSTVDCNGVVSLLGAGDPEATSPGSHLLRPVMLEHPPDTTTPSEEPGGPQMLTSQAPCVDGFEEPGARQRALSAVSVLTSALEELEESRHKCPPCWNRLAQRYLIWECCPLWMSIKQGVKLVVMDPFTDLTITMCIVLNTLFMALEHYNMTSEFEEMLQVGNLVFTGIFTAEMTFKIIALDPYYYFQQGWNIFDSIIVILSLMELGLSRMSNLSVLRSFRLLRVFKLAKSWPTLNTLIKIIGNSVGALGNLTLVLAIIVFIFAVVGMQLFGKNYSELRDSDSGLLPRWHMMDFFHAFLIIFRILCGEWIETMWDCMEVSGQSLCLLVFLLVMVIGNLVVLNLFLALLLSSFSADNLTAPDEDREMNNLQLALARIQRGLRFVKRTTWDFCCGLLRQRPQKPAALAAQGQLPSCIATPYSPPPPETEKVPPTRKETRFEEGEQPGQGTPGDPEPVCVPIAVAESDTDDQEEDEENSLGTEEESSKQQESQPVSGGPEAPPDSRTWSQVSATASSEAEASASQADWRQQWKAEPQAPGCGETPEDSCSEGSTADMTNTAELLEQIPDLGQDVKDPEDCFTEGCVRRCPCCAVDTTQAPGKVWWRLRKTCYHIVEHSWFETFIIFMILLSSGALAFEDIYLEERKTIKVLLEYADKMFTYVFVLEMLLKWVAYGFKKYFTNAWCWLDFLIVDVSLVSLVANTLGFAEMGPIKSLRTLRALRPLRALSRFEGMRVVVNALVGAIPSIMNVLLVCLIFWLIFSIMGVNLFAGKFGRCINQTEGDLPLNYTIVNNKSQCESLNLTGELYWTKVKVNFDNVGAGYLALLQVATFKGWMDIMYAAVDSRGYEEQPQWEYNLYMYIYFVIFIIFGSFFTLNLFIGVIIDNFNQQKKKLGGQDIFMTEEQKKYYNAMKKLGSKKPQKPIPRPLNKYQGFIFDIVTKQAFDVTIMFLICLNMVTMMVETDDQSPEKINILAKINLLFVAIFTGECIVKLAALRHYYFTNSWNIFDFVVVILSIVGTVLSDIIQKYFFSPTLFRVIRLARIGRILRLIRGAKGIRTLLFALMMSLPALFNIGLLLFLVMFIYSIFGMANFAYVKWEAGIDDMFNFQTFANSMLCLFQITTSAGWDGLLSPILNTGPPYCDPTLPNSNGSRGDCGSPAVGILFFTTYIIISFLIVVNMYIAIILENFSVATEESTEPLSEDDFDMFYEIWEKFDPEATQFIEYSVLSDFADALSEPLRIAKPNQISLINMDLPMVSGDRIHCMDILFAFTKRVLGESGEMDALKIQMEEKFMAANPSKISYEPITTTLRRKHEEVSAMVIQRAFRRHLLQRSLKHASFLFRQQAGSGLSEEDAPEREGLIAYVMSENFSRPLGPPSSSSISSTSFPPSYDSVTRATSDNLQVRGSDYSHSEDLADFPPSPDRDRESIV
Procedure: Whole-cell patch-clamp was used to directly measure inward sodium currents in HEK-293 cells expressing the human cardiac sodium channel, SCN5A. After reach steady-state effect in the presence of drug, rate-dependence was assessed by stimulation at frequencies of 1 Hz and 4 Hz. Experiments were carried out using an aqueous buffer at pH 7.4 and at room temperature. There is no protein in the buffer and drug concentrations reported are nominal free drug levels. Test article was evaluated up to 10 μM (protein-free buffer). Rate-dependence of inhibition was assessed by stimulation at frequencies of 1 Hz and 4 Hz.

Protein binding, rabbit = format: in vitro ADME
[3] = HepG2 cells, CYP3A-Luc reporter

Sequence of Human PXR (O75469 whole entry): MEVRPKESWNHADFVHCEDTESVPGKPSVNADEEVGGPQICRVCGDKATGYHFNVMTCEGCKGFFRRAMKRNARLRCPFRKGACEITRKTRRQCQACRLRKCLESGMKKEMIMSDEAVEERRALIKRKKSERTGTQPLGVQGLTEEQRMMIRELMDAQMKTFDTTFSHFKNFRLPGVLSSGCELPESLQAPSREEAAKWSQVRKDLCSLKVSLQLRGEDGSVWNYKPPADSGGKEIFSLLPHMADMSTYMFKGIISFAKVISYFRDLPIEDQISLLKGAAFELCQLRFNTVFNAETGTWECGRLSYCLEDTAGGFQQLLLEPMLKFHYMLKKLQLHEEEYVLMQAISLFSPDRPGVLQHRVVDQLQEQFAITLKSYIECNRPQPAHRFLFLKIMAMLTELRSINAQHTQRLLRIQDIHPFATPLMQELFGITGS

Row | PXR EC60 (Human PXR; HepG2 cells, CYP3A-Luc reporter, reported as EC60) [nM] | Human Liver Microsomal Metabolism % remaining (Assay Conditions A) [1] | SMILES | pEC50 (Human PXR; [3]) | inhibition at 10 µM [2] [%] | fraction unbound (Protein binding, rabbit) | PXR activation (in words) (Human PXR; in vitro screen)
1 | 1120 | 67% | CC(C)CC(=O)N[C@@H](C(=O)N1CC[C@](O)(c2ccc(Cl)cc2)C(C)(C)C1)C(C)C [#466] | – | – | – | –
2 | – | 47% | CC(C)[C@@H](NC(=O)C1CCCC1)C(=O)N1CC[C@](O)(c2ccc(Cl)cc2)C(C)(C)C1 [#460] | 6.28 | – | – | –
3 | – | – | CC(C)[C@@H](NC(=O)NCC(C)(C)O)C(=O)N1CC[C@](O)(c2ccc(Cl)cc2)C(C)(C)C1 [Compound I] | < 4.60 | 12 | 0.13 | not a significant activator

Row | SMILES | PXR EC60 (Human PXR; HepG2 cells, CYP3A-Luc reporter, reported as EC60) [nM] | Human Liver Microsomal Metabolism % remaining (Assay Conditions A) [1] | pEC50 (Human PXR; [3]) | inhibition at 10 µM [2] [%] | fraction unbound (Protein binding, rabbit) | PXR activation (in words) (Human PXR; in vitro screen)
4 | CC(C)[C@@H](NC(=O)CC(C)(C)O)C(=O)N1CC[C@](O)(c2ccc(Cl)cc2)C(C)(C)C1 [#1356] | – | 100% (A)/100% (B) | 5.74 | – | – | –
